Results published in US20230159445A1, “STAT INHIBITORY COMPOUNDS AND COMPOSITIONS” (JANPIX LIMITED, priority 2020, published 2023).

How the values were obtained:
MV4-11 cells = assay: MV4-11 Cell Cytotoxicity Assay (CellTiter-Blue, 72 h); assay type: cell-based, human; details: Homo sapiens, MV4-11; MV-4-11 cells
How it was run: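 Cells seeded 24 h before treatment, then exposed 72 h at 37° C, 5% CO2 to inhibitors in triplicate, top concentration 50 μM with 1:2 serial dilutions (0.5% DMSO vehicle). Viability read by CellTiter-Blue fluorescence at 560/590 nm after 1 h.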

[1] = tested on: normal human fibroblast (NHF) cells; assay: NHF Cell Cytotoxicity Assay (CellTiter-Blue, 72 h), off-target effects; assay type: cell-based; details: Homo sapiens, Fibroblast; pooled NHF cells
How it was run: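 Normal human fibroblasts (1×10^4/well, 10% FBS medium) were treated after 24 h with inhibitor at 0.097656-50 μM for 72 h at 37° C. Viability was read by CellTiter-Blue fluorescence (560/590 nm), normalized to DMSO control, and IC50 obtained from a variable-slope log(inhibitor)-response fit of four replicates.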

glutathione (GSH) = assay: Reactivity Profiling with Glutathione (GSH), half-life by HPLC; details: 5 mM glutathione (GSH) in IMDM with 10% FBS

half-life at 25 μM (glutathione (GSH)) [h] | Compound | IC50 (MV4-11 cells) [nM] | IC50 [1] [nM]
2.37 to 4.12 | O=C(O)c1ccc(N(Cc2cc(C3CC3)cc(C3CC3)c2)C(=O)CN(Cc2c(F)cc(F)cc2F)S(=O)(=O)c2c(F)c(F)c(F)c(F)c2F)c(C2CC2)c1 [Compound 1195, 3-cyclopropyl-4-(N-(3,5-dicyclopropylbenzyl)-2-(N-(2,4,6-trifluorobenzyl)-(2,3,4,5,6-pentafluoro-phenyl)sulfonamido)acetamido)benzoic acid] | 0.01 to 316 | 1 to 10000
9.23 to 1670 | O=C(O)c1ccc(N(Cc2cc(C3CC3)cc(N3CCCC3)c2)C(=O)CN(Cc2c(F)cc(F)cc2F)S(=O)(=O)c2c(F)c(F)c(F)c(F)c2F)c(OC2CC2)c1 [Compound 1191, 3-cyclopropoxy-4-(N-(3-cyclopropyl-5-(pyrrolidin-1-yl)benzyl)-2-(N-(2,4,6-trifluorobenzyl)-(2,3,4,5,6-pentafluoro-phenyl)sulfonamido)acetamido)benzoic acid] | 316 to 1000 | 1 to 10000
4.12 to 9.23 | O=C(O)c1ccc(N(Cc2cc(C3CC3)cc(C3CC3)c2)C(=O)CN(Cc2ncc(F)cc2Cl)S(=O)(=O)c2c(F)c(F)c(F)c(F)c2F)c(OC2CC2)c1 [Compound 1214, 4-(2-(N-((3-chloro-5-fluoropyridin-2-yl)methyl)-(2,3,4,5,6-pentafluorophenyl)sulfon-amido)-N-(3,5-dicyclopropylbenzyl)acetamido)-3-cyclopropoxybenzoic acid] | 0.01 to 316 | 1 to 10000
2.37 to 4.12 | CCOc1cc(C(=O)O)ccc1N(Cc1cc(C2CC2)cc(C2CC2)c1)C(=O)CN(Cc1ccc(F)cc1Cl)S(=O)(=O)c1c(F)c(F)c(F)c(F)c1F [Compound 1252, 4-(2-(N-(2-chloro-4-fluorobenzyl)-(2,3,4,5,6-pentafluorophenyl)sulfon-amido)-N-(3,5-dicyclopropylbenzyl)acetamido)-3-ethoxybenzoic acid] | 0.01 to 316 | 1 to 10000
2.37 to 4.12 | COc1cc(C(=O)O)ccc1N(Cc1cc(C2CC2)cc(C(C)(C)C)c1)C(=O)CN(Cc1cnccc1C(F)(F)F)S(=O)(=O)c1c(F)c(F)c(F)c(F)c1F [Compound 1116, 4-(N-(3-(tert-butyl)-5-cyclopropylbenzyl)-2-(N-((4-(trifluoromethyl)pyridin-3-yl)methyl)-(2,3,4,5,6-pentafluoro-phenyl)sulfonamido)acetamido)-3-methoxybenzoic acid] | 0.01 to 316 | 10000 to 20000
0.00167 to 2.37 | CN(C)c1cc(C(=O)O)ccc1N(Cc1cc(C2CC2)cc(C2CC2)c1)C(=O)CN(Cc1cnccc1C(F)(F)F)S(=O)(=O)c1c(F)c(F)c(F)c(F)c1F [Compound 1210, 4-(N-(3,5-dicyclopropylbenzyl)-2-(N-((4-(trifluoromethyl)pyridin-3-yl)methyl)-(2,3,4,5,6-pentafluoro-phenyl)sulfonamido)acetamido)-3-(dimethylamino) benzoic acid] | 0.01 to 316 | 1 to 10000
9.23 to 1670 | O=C(O)c1ccc(N(Cc2cc(C3CC3)cc(N3CCCC3)c2)C(=O)CN(Cc2cnccc2C(F)(F)F)S(=O)(=O)c2c(F)c(F)c(F)c(F)c2F)c(OC2CCCC2)c1 [Compound 1209, 3-(cyclopentyloxy)-4-(N-(3-cyclopropyl-5-(pyrrolidin-1-yl)benzyl)-2-(N-((4-(trifluoromethyl)pyridin-3-yl)methyl)-(2,3,4,5,6-pentafluoro-phenyl)sulfonamido)acetamido)benzoic acid] | 0.01 to 316 | 10000 to 20000
4.12 to 9.23 | O=C(O)c1ccc(N(Cc2cc(C3CC3)cc(C3CC3)c2)C(=O)CN(Cc2c(F)cc(F)cc2F)S(=O)(=O)c2c(F)c(F)c(F)c(F)c2F)c(OC2CC2)c1 [Compound 1178, 3-cyclopropoxy-4-(N-(3,5-dicyclopropylbenzyl)-2-(N-(2,4,6-trifluorobenzyl)-(2,3,4,5,6-pentafluoro-phenyl)sulfonamido)acetamido)benzoic acid] | 0.01 to 316 | 10000 to 20000
2.37 to 4.12 | CCOc1cc(C(=O)O)ccc1N(Cc1cc(C2CC2)cc(C2CC2)c1)C(=O)CN(Cc1ccccc1Cl)S(=O)(=O)c1c(F)c(F)c(F)c(F)c1F [Compound 1278, 4-(2-((N-(2-chlorobenzyl)-2,3,4,5,6-pentafluorophenyl)sulfonamido)-N-(3,5-dicyclopropylbenzyl)acetamido)-3-ethoxybenzoic acid] | 0.01 to 316 | 10000 to 20000
9.23 to 1670 | O=C(O)c1ccc(N(Cc2cc(C3CC3)cc(C3CC3)c2)C(=O)CN(Cc2ccc(F)cc2Cl)S(=O)(=O)c2c(F)c(F)c(F)c(F)c2F)c(OC2CCCC2)c1 [Compound 1208, 4-(2-(N-(2-chloro-4-fluorobenzyl)-(2,3,4,5,6-pentafluorophenyl)sulfon-amido)-N-(3,5-dicyclopropylbenzyl)acetamido)-3-(cyclopentyloxy) benzoic acid] | 0.01 to 316 | 10000 to 20000
9.23 to 1670 | O=C(O)c1ccc(N(Cc2cc(C3CC3)cc(C3CC3)c2)C(=O)CN(Cc2c(F)c(F)c(F)c(F)c2F)S(=O)(=O)c2c(F)c(F)c(F)c(F)c2F)c(OC2CC2)c1 [Compound 1183, 3-cyclopropoxy-4-(N-(3,5-dicyclopropylbenzyl)-2-(N-((perfluorophenyl)methyl)-(2,3,4,5,6-pentafluoro-phenyl)sulfonamido)acetamido)benzoic acid] | 0.01 to 316 | 1 to 10000
9.23 to 1670 | O=C(O)c1ccc(N(Cc2cc(C3CC3)cc(N3CCCC3)c2)C(=O)CN(Cc2ccc(F)cc2Cl)S(=O)(=O)c2c(F)c(F)c(F)c(F)c2F)c(OC2CC2)c1 [Compound 1192, 4-(2-(N-(2-chloro-4-fluorobenzyl)-(2,3,4,5,6-pentafluorophenyl)sulfon-amido)-N-(3-cyclopropyl-5-(pyrrolidin-1-yl)benzyl)acetamido)-3-cyclopropoxybenzoic acid] | 316 to 1000 | 10000 to 20000
4.12 to 9.23 | N#Cc1ccccc1CN(CC(=O)N(Cc1cc(C2CC2)cc(C2CC2)c1)c1ccc(C(=O)O)cc1OC1CCCC1)S(=O)(=O)c1c(F)c(F)c(F)c(F)c1F [Compound 1279, 4-(2-((N-(2-cyanobenzyl)-2,3,4,5,6-pentafluorophenyl)sulfonamido)-N-(3,5-dicyclopropylbenzyl)acetamido)-3-(cyclopentyloxy)benzoic acid] | 0.01 to 316 | 10000 to 20000
2.37 to 4.12 | COc1cc(C(=O)O)ccc1N(Cc1cc(C2CC2)cc(C(C)(C)C)c1)C(=O)CN(Cc1ncccc1C(F)(F)F)S(=O)(=O)c1c(F)c(F)c(F)c(F)c1F [Compound 1098, 4-(N-(3-(tert-butyl)-5-cyclopropylbenzyl)-2-(N-((3-(trifluoromethyl)pyridin-2-yl)methyl)-(2,3,4,5,6-pentafluoro-phenyl)sulfonamido)acetamido)-3-methoxybenzoic acid] | 316 to 1000 | 20000 to 30000
4.12 to 9.23 | O=C(O)c1ccc(N(Cc2cc(C3CC3)cc(C3CC3)c2)C(=O)CN(Cc2ccc(F)cc2Cl)S(=O)(=O)c2c(F)c(F)c(F)c(F)c2F)c(N2CCOCC2)c1 [Compound 1241, 4-(2-(N-(2-chloro-4-fluorobenzyl)-(2,3,4,5,6-pentafluorophenyl)sulfon-amido)-N-(3,5-dicyclopropylbenzyl)acetamido)-3-morpholinobenzoic acid] | 0.01 to 316 | 1 to 10000
9.23 to 1670 | CC(C)(C)c1cc(CN(C(=O)CN(Cc2c(F)cc(F)cc2F)S(=O)(=O)c2c(F)c(F)c(F)c(F)c2F)c2ccc(C(=O)O)cc2C2CC2)cc(C2CC2)c1 [Compound 1123, 4-(N-(3-(tert-butyl)-5-cyclopropylbenzyl)-2-(N-(2,4,6-trifluorobenzyl)-(2,3,4,5,6-pentafluoro-phenyl)sulfonamido)acetamido)-3-cyclopropylbenzoic acid] | 0.01 to 316 | 1 to 10000
4.12 to 9.23 | CC(C)(C)c1cc(CN(C(=O)CN(Cc2cnccc2C(F)(F)F)S(=O)(=O)c2c(F)c(F)c(F)c(F)c2F)c2ccc(C(=O)O)cc2OC2CC2)cc(C2CC2)c1 [Compound 1142, 4-(N-(3-(tert-butyl)-5-cyclopropylbenzyl)-2-(N-((4-(trifluoromethyl)pyridin-3-yl)methyl)-(2,3,4,5,6-pentafluoro-phenyl)sulfonamido)acetamido)-3-cyclopropoxybenzoic acid] | 0.01 to 316 | 20000 to 30000
2.37 to 4.12 | CCOc1cc(C(=O)O)ccc1N(Cc1cc(C2CC2)cc(N2CCCC2)c1)C(=O)CN(Cc1ccccc1C#N)S(=O)(=O)c1c(F)c(F)c(F)c(F)c1F [Compound 1281, 4-(2-((N-(2-cyanobenzyl)-2,3,4,5,6-pentafluorophenyl)sulfonamido)-N-(3-cyclopropyl-5-(pyrrolidin-1-yl)benzyl)acetamido)-3-ethoxybenzoic acid] | 0.01 to 316 | 10000 to 20000
0.00167 to 2.37 | O=C(O)c1ccc(N(Cc2cc(C3CC3)cc(C3CC3)c2)C(=O)CN(CCc2ccc(F)cc2Cl)S(=O)(=O)c2c(F)c(F)c(F)c(F)c2F)c(OC2CC2)c1 [Compound 1242, 4-(2-(N-(2-chloro-4-fluorophenethyl)-(2,3,4,5,6-pentafluorophenyl)sulfon-amido)-N-(3,5-dicyclopropylbenzyl)acetamido)-3-cyclopropoxybenzoic acid] | 316 to 1000 | 10000 to 20000
